Series [1] concerns germinal epithelium cells. Particulars: in the presence of 10% HC CSF; n=3.
The subject of another series is H-Tx model of EOHC. Put plainly: In vivo supplementation of mothers, numbers of affected HC fetuses. More on the design: species or system rat. The conditions noted are these: long term: 2.5 mg/kg daily from 14 days prior to mating to day 20; saline controls 45%. As for the experimental part:
Mothers were injected daily with 2.5 mg/kg of the supplements folic acid or folinic acid or saline controls. Injections were started 14 days prior to mating and continued throughout pregnancy up to harvesting of the fetuses at day 20. Fetuses were harvested on Day20 of gestation and each fetus was scored as affected HC or normal. The percentage of normal or affected fetuses in each litter was then calculated and results were averaged across the 3 mothers (2 for saline treatment) and are plotted as shown, mean±SD.
Mothers were injected daily with 2.5 mg/kg of the supplements folic acid or folinic acid. Injections were started at E17 of the pregnancy and continued through the rest of the pregnancy up to harvesting of the fetuses at day 20. Fetuses were harvested on Day20 of gestation and each fetus was scored as affected HC or normal. The percentage of normal or affected fetuses in each litter was then calculated and results were averaged across the 3 mothers (2 for saline treatment) and are plotted as shown, mean±SD.
Timed pregnancies of H-Tx or Wistar rats were harvested from pregnant dams killed by intraperitoneal injection of sodium pentobarbitone. […]
Female rats were handled for one week prior to the start of the supplementation protocol to decrease handling stress. […] Stained sections were photographed on a Lecia DMLB photomicroscope and analysed using Metaview software. […]

The conditions of series [2]: human population, supplementation of female diets; data from reports; cited from earlier work.
Series [3] in a line: Effect of supplementation on mother's weight through pregnancy. It is filed as in vivo, rat. The conditions noted are these: 2.5 mg/kg daily injection from 14 days prior to mating to day 20; no significant differences. On the procedure: Mothers were injected daily with 2.5 mg/kg of the supplements folic acid or folinic acid or saline controls. Injections were started 14 days prior to mating and continued throughout pregnancy up to harvesting of the fetuses at day 20. Mothers were weighed at the same time each day and data converted to % of starting weight at day 0. Results were averaged across the 3 mothers (2 for saline treatment) and are plotted as shown mean±SD.
The hypothesis was tested further using the H-Tx model of EOHC. Mothers were injected daily with 2.5 mg/kg of the supplements folic acid (3 mothers-31 pups) or folinic acid (3 mothers-35 pups) or saline controls (2 mothers-20 pups). Injections were started 14 days prior to mating and continued throughout pregnancy up to harvesting of the fetuses at day 20.

Results on 2 compounds are retold here after patent US20110092453A1, “TREATMENTS AND PREVENTION OF HYDROCEPHALUS” (THE UNIVERSITY OF MANCHESTER, priority 2007, published 2011).

`Nc1nc2ncc(CNc3ccc(C(=O)N[C@@H](CCC(=O)O)C(=O)O)cc3)nc2c(=O)[nH]1` [[^3H]-folic acid]: the “uptake, % of that in the absence of added CSF” value in series [1] worked out at 53±13%.

`Nc1nc2ncc(CNc3ccc(C(=O)N[C@@H](CCC(=O)O)C(=O)O)cc3)nc2c(=O)[nH]1` [folic acid]: the “incidence of HC (percentage of affected fetuses in the litter)” value in the series with H-Tx model of EOHC is listed as 60%. The “effect on the incidence of HC” value in series [2] was “does not have any significant effect”. In addition, the “weight of the mothers compared to saline treated animals” value in series [3] is recorded as “slightly increased weight”.
